Assay results published in PubChem BioAssay AID330 (DTP/NCI, 2004).
Where “and” joins values, the source holds several entries; their conditions need not be identical. Identical values can stand only once. Toxic doses and inconclusive results are not listed.

System: P388 leukemia ip, CD2F1 mice, survival T/C
Assay: NCI In Vivo Anticancer Drug Screen. Data for tumor model P388 Leukemia (intraperitoneal) in CD2F1 (CDF1) mice
Details: endpoint: median survival time, higher = longer survival
Procedure, shortened: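 Mice carrying the transplanted tumor received test compound or vehicle. Survival was recorded in each group, and the value is the treated-group measurement divided by that of the vehicle-treated control group.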

[1] = dose: 50.0 mg/kg/injection, schedule: Q01DX009 (ip), vehicle: Klucel (hydroxypropylcellulose) (HPC)
[2] = dose: 100.0 mg/kg/injection, schedule: Q01DX009 (ip), vehicle: Klucel (hydroxypropylcellulose) (HPC)
[3] = dose: 200.0 mg/kg/injection, schedule: Q01DX009 (ip), vehicle: Klucel (hydroxypropylcellulose) (HPC)
[4] = dose: 60.0 mg/kg/injection, schedule: Q01DX005 (ip), vehicle: saline with Tween-80
[5] = dose: 120.0 mg/kg/injection, schedule: Q01DX005 (ip), vehicle: saline with Tween-80
[6] = dose: 240.0 mg/kg/injection, schedule: Q01DX005 (ip), vehicle: saline with Tween-80
[7] = dose: 50.0 mg/kg/injection, schedule: Q01DX005 (ip), vehicle: saline with Tween-80
[8] = dose: 100.0 mg/kg/injection, schedule: Q01DX005 (ip), vehicle: saline with Tween-80
[9] = dose: 200.0 mg/kg/injection, schedule: Q01DX005 (ip), vehicle: saline with Tween-80
[10] = dose: 50.0 mg/kg/injection, schedule: Q01DX005 (ip), vehicle: Klucel (hydroxypropylcellulose) (HPC)
[11] = dose: 100.0 mg/kg/injection, schedule: Q01DX005 (ip), vehicle: Klucel (hydroxypropylcellulose) (HPC)
[12] = dose: 200.0 mg/kg/injection, schedule: Q01DX005 (ip), vehicle: Klucel (hydroxypropylcellulose) (HPC)
[13] = dose: 50.0 mg/kg/injection, schedule: Q01DX009 (ip), vehicle: saline with Tween-80
[14] = dose: 100.0 mg/kg/injection, schedule: Q01DX009 (ip), vehicle: saline with Tween-80
[15] = dose: 200.0 mg/kg/injection, schedule: Q01DX009 (ip), vehicle: saline with Tween-80

## O=C(NC(C(=O)NC(C(=O)O)C1CC(Cl)=NO1)C1CC(Cl)=NO1)OCC1c2ccccc2-c2ccccc21 (centres undefined)
dose: 5.0 mg/kg/injection, schedule: Q04DX003 (ip), vehicle: other
  T/C: 120 % of control
dose: 12.5 mg/kg/injection, schedule: Q04DX003 (ip), vehicle: other
  T/C: 150 % of control
dose: 25.0 mg/kg/injection, schedule: Q04DX003 (ip), vehicle: other
  T/C: 160 % of control
dose: 40.0 mg/kg/injection, schedule: Q04DX003 (ip), vehicle: other
  T/C: 172 % of control
dose: 50.0 mg/kg/injection, schedule: Q04DX003 (ip), vehicle: other
  T/C: 222 % of control
dose: 80.0 mg/kg/injection, schedule: Q04DX003 (ip), vehicle: other
  T/C: 201 % of control
dose: 160.0 mg/kg/injection, schedule: Q04DX003 (ip), vehicle: other
  T/C: 158 % of control

## O=CN(Nc1ccccc1)C(=O)Nc1ccc(Cl)c(Cl)c1
dose: 100.0 mg/kg/injection, schedule: Q04DX002 (ip), vehicle: Klucel (hydroxypropylcellulose) (HPC)
  T/C: 96 % of control
dose: 200.0 mg/kg/injection, schedule: Q04DX002 (ip), vehicle: Klucel (hydroxypropylcellulose) (HPC)
  T/C: 97 % of control
dose: 400.0 mg/kg/injection, schedule: Q04DX002 (ip), vehicle: Klucel (hydroxypropylcellulose) (HPC)
  T/C: 104 % of control

## CC1CN(/N=C/c2ccc([N+](=O)[O-])o2)C(=O)O1 (centres undefined)
dose: 6.25 mg/kg/injection, schedule: Q01DX009 (ip), vehicle: Klucel (hydroxypropylcellulose) (HPC)
  T/C: 108 % of control
dose: 12.5 mg/kg/injection, schedule: Q01DX009 (ip), vehicle: Klucel (hydroxypropylcellulose) (HPC)
  T/C: 106 % of control
dose: 25.0 mg/kg/injection, schedule: Q01DX009 (ip), vehicle: Klucel (hydroxypropylcellulose) (HPC)
  T/C: 103 % of control
[1]
  T/C: 103 % of control

## c1ccc2c(c1)ccc1c2nnc2nnnn21
[1]
  T/C: 104 % of control
[2]
  T/C: 105 % of control
[3]
  T/C: 95 % of control

## O=C1OCC/C1=C/OC(=O)c1ccccc1
[4]
  T/C: 93 % of control
[5]
  T/C: 99 % of control
[6]
  T/C: 106 % of control

## Cc1cccc(C(C)(C)C)c1NC(=O)CCc1nnc(N)n1N
[7]
  T/C: 111 % of control
[8]
  T/C: 100 % of control
[9]
  T/C: 101 % of control

## O=C(O)CN(CCN(CC(=O)O)CC(=O)O)CCN(CC(=O)O)CC(=O)O
[10]
  T/C: 103 % of control
[11]
  T/C: 108 % of control
[2]
  T/C: 91 % of control
[12]
  T/C: 103 % of control
[3]
  T/C: 94 % of control

## Cc1ccc(S(=O)(=O)NC(=O)n2nc(C)cc2C)cc1
[10]
  T/C: 96 % of control
[11]
  T/C: 96 % of control
[12]
  T/C: 103 % of control

## COC(=O)c1ccc(=O)c2nc3/c(=C/O)c(O)cc(=O)c3[nH]c12
dose: 0.15 mg/kg/injection, schedule: Q04DX003 (ip), vehicle: saline
  T/C: 95 % of control
dose: 0.3 mg/kg/injection, schedule: Q01DX009 (ip), vehicle: saline with Tween-80
  T/C: 90 % of control
dose: 0.3 mg/kg/injection, schedule: Q04DX003 (ip), vehicle: saline
  T/C: 100 % of control
dose: 0.6 mg/kg/injection, schedule: Q04DX003 (ip), vehicle: saline
  T/C: 109 % of control

## CC[CH](C)[Sn](=[O])[CH](C)CC (centres undefined)
dose: 0.78 mg/kg/injection, schedule: Q01DX009 (ip), vehicle: saline
  T/C: 97 % of control
dose: 1.56 mg/kg/injection, schedule: Q01DX009 (ip), vehicle: saline
  T/C: 105 % of control
dose: 3.12 mg/kg/injection, schedule: Q01DX009 (ip), vehicle: saline
  T/C: 113 % of control

## CNC(=O)Oc1ccc(Sc2ccc(OC(=O)NC)c(Cl)c2)cc1Cl
dose: 50.0 mg/kg/injection, schedule: Q01DX005 (ip), vehicle: saline + Tween-80 + alcohol
  T/C: 106 % of control
[7]
  T/C: 99 % of control and 118 % of control
dose: 100.0 mg/kg/injection, schedule: Q01DX005 (ip), vehicle: saline + Tween-80 + alcohol
  T/C: 119 % of control
[8]
  T/C: 102 % of control and 118 % of control
dose: 200.0 mg/kg/injection, schedule: Q01DX005 (ip), vehicle: saline + Tween-80 + alcohol
  T/C: 114 % of control
[9]
  T/C: 117 % of control
dose: 400.0 mg/kg/injection, schedule: Q01DX005 (ip), vehicle: saline + Tween-80 + alcohol
  T/C: 124 % of control

## O=C1Nc2ncnn2C1=O
[13]
  T/C: 108 % of control
[14]
  T/C: 111 % of control
[15]
  T/C: 99 % of control
dose: 400.0 mg/kg/injection, schedule: Q01DX009 (ip), vehicle: saline with Tween-80
  T/C: 96 % of control

## COc1cc2c(cc1OC)C1N(CC2)C(=O)NC1(C)C (centres undefined)
[4]
  T/C: 97 % of control
[5]
  T/C: 103 % of control
[6]
  T/C: 98 % of control

## CCCCCCCCCCCCOc1ccc(Br)cc1C(=O)O
[13]
  T/C: 100 % of control
[14]
  T/C: 112 % of control
[15]
  T/C: 105 % of control

## COC(=O)c1cc(-c2ccc(OC)cc2)[nH]c(=O)c1C#N
[4]
  T/C: 100 % of control
[5]
  T/C: 91 % of control

## COc1cc([C@H]2c3cc4c(cc3C[C@H]3COC(=O)[C@@H]32)OCO4)cc(OC)c1OC
dose: 12.5 mg/kg/injection, schedule: Q04DX002 (ip), vehicle: saline with Tween-80
  T/C: 92 % of control
dose: 25.0 mg/kg/injection, schedule: Q04DX002 (ip), vehicle: saline with Tween-80
  T/C: 86 % of control
dose: 50.0 mg/kg/injection, schedule: Q04DX002 (ip), vehicle: saline with Tween-80
  T/C: 89 % of control

## CNC(=O)NNc1ccccc1
dose: 25.0 mg/kg/injection, schedule: Q04DX003 (ip), vehicle: Klucel (hydroxypropylcellulose) (HPC)
  T/C: 100 % of control
dose: 50.0 mg/kg/injection, schedule: Q04DX003 (ip), vehicle: Klucel (hydroxypropylcellulose) (HPC)
  T/C: 102 % of control
dose: 100.0 mg/kg/injection, schedule: Q04DX003 (ip), vehicle: Klucel (hydroxypropylcellulose) (HPC)
  T/C: 97 % of control
dose: 200.0 mg/kg/injection, schedule: Q04DX003 (ip), vehicle: Klucel (hydroxypropylcellulose) (HPC)
  T/C: 102 % of control
dose: 400.0 mg/kg/injection, schedule: Q04DX003 (ip), vehicle: Klucel (hydroxypropylcellulose) (HPC)
  T/C: 103 % of control

## Cc1ccccc1N=Nc1c(O)n(-c2ccc(Cl)cc2)c(=S)n(-c2ccc(Br)cc2)c1=O
dose: 100.0 mg/kg/injection, schedule: Q04DX002 (ip), vehicle: saline with Tween-80
  T/C: 96 % of control
dose: 200.0 mg/kg/injection, schedule: Q04DX002 (ip), vehicle: saline with Tween-80
  T/C: 105 % of control
dose: 400.0 mg/kg/injection, schedule: Q04DX002 (ip), vehicle: saline with Tween-80
  T/C: 91 % of control

## NC1=C(Cl)C(=O)C(N)=C(Cl)C1=O
dose: 25.0 mg/kg/injection, schedule: Q01DX009 (ip), vehicle: saline with Tween-80
  T/C: 113 % of control
[1]
  T/C: 100 % of control
[13]
  T/C: 100 % of control
[2]
  T/C: 103 % of control
[14]
  T/C: 100 % of control
[3]
  T/C: 105 % of control
[15]
  T/C: 94 % of control
dose: 400.0 mg/kg/injection, schedule: Q01DX009 (ip), vehicle: Klucel (hydroxypropylcellulose) (HPC)
  T/C: 99 % of control

## COc1cccc2c1C(=O)c1c(O)c3c(c(O)c1C2=O)C[C@@](O)(C(C)=O)C[C@@H]3OC1CC(O)C(O)C(C)O1 (some centres undefined)
dose: 12.5 mg/kg/injection, schedule: Q04DX003 (ip), vehicle: water
  T/C: 123 % of control
dose: 100.0 mg/kg/injection, schedule: Q04DX003 (ip), vehicle: water
  T/C: 161 % of control
dose: 200.0 mg/kg/injection, schedule: Q04DX003 (ip), vehicle: water
  T/C: 192 % of control

## CCCc1c(C(=O)O)c(-c2cccc3ccccc23)c(CCC)c2c1-c1cccc3cccc-2c13
[13]
  T/C: 105 % of control
[14]
  T/C: 102 % of control
[15]
  T/C: 100 % of control

## CN(C)CCN1C(=O)CN=C(c2ccccc2Cl)c2cc(Cl)ccc21
dose: 60.0 mg/kg/injection, schedule: Q01DX005 (ip), vehicle: saline
  T/C: 102 % of control
dose: 120.0 mg/kg/injection, schedule: Q01DX005 (ip), vehicle: saline
  T/C: 99 % of control
dose: 240.0 mg/kg/injection, schedule: Q01DX005 (ip), vehicle: saline
  T/C: 95 % of control

## COc1ccc(-c2sc(/N=C/c3cc(OC)c(OC)c(OC)c3)c(C#N)c2C)cc1OC
dose: 50.0 mg/kg/injection, schedule: Q04DX003 (ip), vehicle: saline with Tween-80
  T/C: 101 % of control
dose: 100.0 mg/kg/injection, schedule: Q04DX003 (ip), vehicle: saline with Tween-80
  T/C: 99 % of control
dose: 200.0 mg/kg/injection, schedule: Q04DX003 (ip), vehicle: saline with Tween-80
  T/C: 100 % of control
dose: 400.0 mg/kg/injection, schedule: Q04DX003 (ip), vehicle: saline with Tween-80
  T/C: 90 % of control
